For experiment [1], the target named is T1, adenosine A2A receptor (Homo sapiens (Human), UniProt P29274). Nature of the experiment: cAMP assay in HEK-293 cells expressing human recombinant adenosine A2A receptor. Type of experiment: cell-based. Particulars: for inhibition at 0.3 µM / inhibition at 0.1 µM: HEK293; for inhibition at 0.3 µM: 300 nM compound, read-out: A2a cAMP % inh @ 300 nM; for inhibition at 0.1 µM: 100 nM compound, read-out: A2a cAMP % inh @ 100 nM. The protocol:
The functional activity of compounds was tested using one of the two assays to detect the present of cAMP. Activation of G-protein coupled receptors (such as A2A) results in activation of adenylcyclase which converts ATP into cAMP which is used as a downstream signaling molecule. Therefore, molecules which act as GPCR (or specifically A2A receptor) antagonists cause a decrease in intracellular cAMP concentration.
Both assays used HEK-293 cells expressing human recombinant adenosine A2A receptor were grown prior to the test in media without antibiotic. Assay 1: The cells were detached by gentle flushing with PBS-EDTA (5 mM EDTA), recovered by centrifugation and suspended in assay buffer (KRH: 5 mM KCl, 1.25 mM MgSO4, 124 mM NaCl, 25 mM HEPES, 13.3 mM Glucose, 1.25 mM KH2PO4, 1.45 mM CaCl2, 0.5 g/L BSA, supplemented with Rolipram).
12 μL of cells were mixed with 6 μL of the test compound at increasing concentrations and then incubated for 10 min. Thereafter 6 μL of the reference agonist was added at a final concentration corresponding to the historical EC80. The plates were then incubated for 30 min at room temperature. After addition of the lysis buffer and 1 hour incubation, cAMP concentrations were estimated, according to the manufacturer specification, with the HTRF® kit.
Assay 2: 100 nL of test articles at 100× of final concentration were transferred to assay plate by Echo. Cells were washed twice with 5 mL of PBS […]. After aspirating the PBS and adding 1.5 mL versine, cells were incubated at 37° C. for 2-5 min. After centrifugation, 4 mL of medium was added and adjusted cell density to 5,000 cells/well with stimulation buffer. 10 μL of cells were aliquoted to the assay plate, centrifuged at 1000 rpm for 1 minute, and incubated for 60 minutes at room temperature. 5 μL 4× Eu-cAMP tracer solution and 5 μL 4× Ulight™-anti-cAMP solution were added to assay plate, followed by centrifugation and 60-minute incubation at room temperature. Plates were read on EnVision.

Experiment [2] has as its target T1, adenosine A2A receptor. Nature of the experiment: Radioligand binding competition assay, adenosine A2A receptor. Particulars: for inhibition at 3 µM / A2A radioligand binding competition assay % residual binding @ 3000 nM: 3000 nM compound; for inhibition at 3 µM: read-out: A2a binding % inh @ 3000 nM. The protocol: Binding of selected compounds to the adenosine A1, A2A, A2B, and A3 receptors was tested using a binding competition assay.
The general protocol for the radioligand binding competition assay was as follows. Competition binding was performed in duplicate in the wells of a 96 well plate (Master Block, Greiner, 786201) containing binding buffer (optimized for each receptor), membrane extracts (amount of protein/well optimized for each receptor), radiotracer (final concentration optimized for each receptor), and test compound. Nonspecific binding was determined by co-incubation with 200-fold excess of cold competitor. The samples were incubated in a final volume of 0.1 mL at 25° C. for 60 minutes and then filtered over filter plates. Filters were washed six times with 0.5 mL of ice-cold washing buffer (optimized for each receptor) and 50 μL of Microscint 20 (Packard) were added on each filter. The filter plates were sealed, incubated 15 min on an orbital shaker and scintillation counted with a TopCount for 30 sec/filter.
For the adenosine A2A receptor radioligand binding assay, the following modifications were made to the general protocol. GF/C filters (Perkin Elmer, 6005174), presoaked in 0.01% Brij for 2 h at room temperature were used. Filters were washed six times with 0.5 mL of ice-cold washing buffer (50 mM Tris pH 7.4) and 50 μL of Microscint 20 (Packard) was added in each well. The plates were then incubated for 15 min on an orbital shaker and then counted with a TopCount™ for 1 min/well.
Another radioligand binding assay was used to evaluate the binding affinity for the adenosine A2A receptor assay was performed in duplicate in the wells of a 384 plate. Assay buffer contained DPBS 500 mM, MgCl2 0.1 mM, and 1% DMSO. Membrane-bead suspension was prepared by mixing 25.98 μL of human adenosine A2A membrane preparation (Perkin Elmer, RBHA2AM400UA) at 33.4 pg/mL, 28 μL of ADA at 20 pg/mL, and 932 μL of SPA beads at 3.33 mg/mL) and incubated the mixture for 20 min at room temperature. Mixed 20 μL of radiotracer (^3H-SCH 58261) at 15 nM to each well containing test articles at various concentrations and centrifuge the plate at 1000 rpm for 1 minute. Added 30 μL of the membrane-bead suspension to each well. Sealed the plates and incubated for 1 hr at room temperature with vigorous mixing on a plate mixer. Plates were read on Microbeta^2 (Perkin Elmer, 2450-0010).
CHO-K1-A3 cell membranes, 1.5 μg/well; a binding buffer comprising HEPES 25 mM pH 7.4, MgCl2 5 mM, CaCl2 1 mM, 0.5% BSA; a wash buffer comprising HEPES 25 mM pH 7.4, MgCl2 5 mM, CaCl2 1 mM; a Unifilter GF/C—treated for 2 h with 0.5% BS; and 0.4 nM of ^125I-AB-MECA as the tracer. The results of the binding assay are shown in Table B1-1 and are shown as percent residual binding at a given concentration. Percent of residual binding means binding of a compound in the presence of competitor normalized to the amount of binding in the absence of competitor. […] For example, compound 1 strongly bound to A2A (30% residual binding at a concentration of 100 nM), A1 (−3% residual binding at 300 nM) and A2B, (−9% residual binding at 300 nM) but weakly bound to A3 (96% residual binding at 300 nM).

Molecules are shown by their SMILES.

T1 sequence (P29274 whole entry): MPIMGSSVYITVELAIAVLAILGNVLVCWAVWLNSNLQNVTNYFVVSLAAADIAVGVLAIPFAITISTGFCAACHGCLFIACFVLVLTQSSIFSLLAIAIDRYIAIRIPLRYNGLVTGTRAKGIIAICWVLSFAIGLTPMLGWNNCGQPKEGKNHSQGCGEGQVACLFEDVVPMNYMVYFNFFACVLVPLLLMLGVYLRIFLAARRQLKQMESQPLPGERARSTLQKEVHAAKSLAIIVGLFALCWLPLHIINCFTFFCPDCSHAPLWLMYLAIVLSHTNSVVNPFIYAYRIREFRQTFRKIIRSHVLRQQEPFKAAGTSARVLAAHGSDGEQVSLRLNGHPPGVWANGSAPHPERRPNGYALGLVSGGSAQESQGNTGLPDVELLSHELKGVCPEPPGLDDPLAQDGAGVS

`Cc1ccc(-c2nc3[nH]ccc(=O)c3cc2-c2ccc3ncsc3c2)o1` [Compound No. 1.98, 6-(benzo[d]thiazol-6-yl)-7-(5-methylfuran-2-yl)-1,8-naphthyridin-4(1H)-one]: on adenosine A2A receptor [1] (second cAMP table), the IC50 (in general, the concentration needed to halve the response being measured) was determined as 17.2 nM. For the same molecule, the inhibition at 3 µM on adenosine A2A receptor [2] was found to be 85%.

Turning to `Cc1cc(-c2cc3ccc(=O)[nH]c3nc2-c2ccccc2)cc(C)n1` [Compound No. 1.33, 6-(2,6-dimethylpyridin-4-yl)-7-phenyl-1,8-naphthyridin-2(1H)-one], the inhibition at 0.3 µM at adenosine A2A receptor [1] was 60%. Moreover, the inhibition at 3 µM at adenosine A2A receptor [2] stood at 30%.

Turning to `O=c1ccc2cc(-c3cc(Cl)c4ncccc4c3)c(-c3ccccc3)nc2[nH]1` [Compound No. 1.12, 6-(8-chloroquinolin-6-yl)-7-phenyl-1,8-naphthyridin-2 (1H)-one], at adenosine A2A receptor [1], the inhibition at 0.1 µM stood at 100%. Moreover, the “A2A radioligand binding competition assay % residual binding @ 3000 nM” value on adenosine A2A receptor [2] was 14/ND/ND/ND %.

Take `O=c1ccc2cc(-c3ccc4nccnc4c3)c(-c3ccccc3)nc2[nH]1` [Compound No. 1.10, 7-phenyl-6-(quinoxalin-6-yl)-1,8-naphthyridin-2(1H)-one]: the inhibition at 0.1 µM at adenosine A2A receptor [1] worked out at 40%. Moreover, on adenosine A2A receptor [2], the “A2A radioligand binding competition assay % residual binding @ 3000 nM” value is on record as 60/ND/ND/ND %.

`O=c1cc[nH]c2nc(-c3ccccc3)c(-c3ccc4ccccc4c3)cc12` [Compound No. 1.16, 6-(naphthalen-2-yl)-7-phenyl-1,8-naphthyridin-4(1H)-one]: the inhibition at 0.1 µM on adenosine A2A receptor [1] was 23%. Also, the “A2A radioligand binding competition assay % residual binding @ 3000 nM” value at adenosine A2A receptor [2] is recorded as 76/ND/ND/ND %.

For the molecule `O=c1cc[nH]c2nc(-c3ccccc3)c(-c3cc(Cl)c4ncccc4c3)cc12` [Compound No. 1.13, 6-(8-chloroquinolin-6-yl)-7-phenyl-1,8-naphthyridin-4(1H)-one], the IC50 on adenosine A2A receptor [1] (first cAMP table) worked out at 47.7 nM. Further, the “A2A radioligand binding competition assay % residual binding @ 3000 nM” value on adenosine A2A receptor [2] is reported as 29/ND/ND/ND %.

As for `Cn1cnc2cc(-c3cc4c(=O)cc[nH]c4nc3-c3ccccc3)ccc21` [Compound No. 1.22, 6-(1-methyl-1H-benzo[d]imidazol-5-yl)-7-phenyl-1,8-naphthyridin-4(1H)-one], the inhibition at 0.1 µM on adenosine A2A receptor [1] worked out at 30%. Besides, the “A2A radioligand binding competition assay % residual binding @ 3000 nM” value on adenosine A2A receptor [2] is on record as 69/ND/ND/ND %.

Consider `O=c1cc[nH]c2nc(-n3cccn3)c(-c3ccc4ncccc4c3)cc12` [Compound No. 1.100, 7-(1H-pyrazol-1-yl)-6-(quinolin-6-yl)-1,8-naphthyridin-4(1H)-one], for which, on adenosine A2A receptor [1] (second cAMP table), the IC50 stood at 3220 nM. For the same molecule, the inhibition at 3 µM at adenosine A2A receptor [2] is 78%.

Turning to `O=c1cc[nH]c2nc(-c3ccncc3)c(-c3ccc4ncccc4c3)cc12` [Compound No. 1.18, 7-(pyridin-4-yl)-6-(quinolin-6-yl)-1,8-naphthyridin-4(1H)-one], the inhibition at 0.1 µM on adenosine A2A receptor [1] stood at 61%. In addition, the “A2A radioligand binding competition assay % residual binding @ 3000 nM” value at adenosine A2A receptor [2] is 38/ND/ND/ND %.

Take `O=c1ccc2cc(-c3ccncc3)c(-c3ccccc3)nc2[nH]1` [Compound No. 1.34, 7-phenyl-6-(pyridin-4-yl)-1,8-naphthyridin-2(1H)-one]: on adenosine A2A receptor [1], the inhibition at 0.3 µM is 26%. Further, the inhibition at 3 µM at adenosine A2A receptor [2] was determined as 30%.

For `Cc1cc(Cl)cc(-c2cc3ccc(=O)[nH]c3nc2-c2ccccc2)c1` [Compound No. 1.35, 6-(3-chloro-5-methylphenyl)-7-phenyl-1,8-naphthyridin-2(1H)-one], the inhibition at 0.3 µM at adenosine A2A receptor [1] turned out to be 12%. Also, the inhibition at 3 µM on adenosine A2A receptor [2] is 0%.

As for `O=c1ccc2cc(-c3cc(Cl)c4[nH]cnc4c3)c(-c3ccccc3)nc2[nH]1` [Compound No. 1.19, 6-(7-chloro-1H-benzo[d]imidazol-5-yl)-7-phenyl-1,8-naphthyridin-2(1H)-one], the inhibition at 0.1 µM at adenosine A2A receptor [1] stood at 74%. The “A2A radioligand binding competition assay % residual binding @ 3000 nM” value at adenosine A2A receptor [2] is listed as 25/ND/ND/ND %.

In the case of `O=c1cc[nH]c2nc(-c3ccccc3)c(-c3ccc4[nH]ncc4c3)cc12` [Compound No. 1.102, 6-(3a,7a-dihydro-1H-indazol-5-yl)-7-phenyl-1,8-naphthyridin-4(1H)-one], the IC50 on adenosine A2A receptor [1] (second cAMP table) was determined as 292 nM. Besides, at adenosine A2A receptor [2], the inhibition at 3 µM was 77%.

Turning to `O=c1cc[nH]c2nc(-c3ccccc3)c(-c3ccc4cnccc4c3)cc12` [Compound No. 1.9, 6-(isoquinolin-6-yl)-7-phenyl-1,8-naphthyridin-4(1H)-one], the inhibition at 0.1 µM on adenosine A2A receptor [1] came out at 30%. Moreover, the “A2A radioligand binding competition assay % residual binding @ 3000 nM” value at adenosine A2A receptor [2] is listed as 70/ND/ND/ND %.

Turning to `O=c1cc[nH]c2nc(-c3ccccc3)c(-c3cc(Cl)c4[nH]cnc4c3)cc12` [Compound No. 1.17, 6-(7-chloro-1H-benzo[d]imidazol-5-yl)-7-phenyl-1,8-naphthyridin-4(1H)-one], the inhibition at 0.1 µM at adenosine A2A receptor [1] is 85%. At adenosine A2A receptor [2], the “A2A radioligand binding competition assay % residual binding @ 3000 nM” value is listed as 14/ND/ND/ND %.

Turning to `O=c1cc[nH]c2nc(-c3ccccc3)c(-c3ccc4ocnc4c3)cc12` [Compound No. 1.21, 6-(benzo[d]oxazol-5-yl)-7-phenyl-1,8-naphthyridin-4(1H)-one], the inhibition at 0.1 µM on adenosine A2A receptor [1] amounted to 45%. Further, at adenosine A2A receptor [2], the “A2A radioligand binding competition assay % residual binding @ 3000 nM” value is given as 54/ND/ND/ND %.

Consider `O=c1ccc2cc(-c3ccc4ncccc4c3)c(-c3ccccc3)nc2[nH]1` [1.4, 7-phenyl-6-(quinolin-6-yl)-1,8-naphthyridin-2(1H)-one], for which the inhibition at 0.1 µM on adenosine A2A receptor [1] turned out to be 82%. Also, the “A2A radioligand binding competition assay % residual binding @ 100 nM” value at adenosine A2A receptor [2] (100 nM compound) is 71%. The “A2A radioligand binding competition assay % residual binding @ 300 nM” value at adenosine A2A receptor [2] (300 nM compound) came out at 79%. Moreover, the “A2A radioligand binding competition assay % residual binding @ 1000 nM” value on adenosine A2A receptor [2] (1000 nM compound) turned out to be 17%. Moreover, on adenosine A2A receptor [2], the “A2A radioligand binding competition assay % residual binding @ 3000 nM” value turned out to be 19%.

For the molecule `O=c1cc[nH]c2nc(-c3ccccc3)c(-c3ccc4ncncc4c3)cc12` [Compound No. 1.101], the IC50 on adenosine A2A receptor [1] (second cAMP table) came to 182 nM. The inhibition at 3 µM at adenosine A2A receptor [2] came out at 72%.

As to `Cc1cc(-c2cc3c(=O)cc[nH]c3nc2-c2ccccc2)cc2cccnc12` [Compound No. 1.23, 6-(8-methylquinolin-6-yl)-7-phenyl-1,8-naphthyridin-4(1H)-one], at adenosine A2A receptor [1], the inhibition at 0.1 µM stood at 77%. Also, on adenosine A2A receptor [2], the “A2A radioligand binding competition assay % residual binding @ 3000 nM” value is listed as 22/ND/ND/ND %.

With `O=c1cc[nH]c2nc(-c3ccccc3)c(-c3ccc4nccnc4c3)cc12` [Compound No. 1.15, 7-phenyl-6-(quinoxalin-6-yl)-1,8-naphthyridin-4(1H)-one], the inhibition at 0.1 µM on adenosine A2A receptor [1] is 54%. In addition, the “A2A radioligand binding competition assay % residual binding @ 3000 nM” value at adenosine A2A receptor [2] is 45/ND/ND/ND %.

The values above are taken from patent US10793561B2, “1,8-naphthyridinone compounds and uses thereof” (NUVATION BIO INC., priority 2017, dated 2020).
